Like-named read-outs stand apart in the source and are kept apart here. *1 amine or outer side, *2 acyl side, *3 side chain or, on linkers, in order; H or OH if unused. Where a SMILES comes first, the peptide text is derived from it. Bridges are numbered along the chain shown (N, C = ends). Roman numbers before positions name the chains, in order. [ ]: non-standard residue; d: D form. Actinocin(9to1) = Cc1c2oc3c(C)ccc(C(=O)[*:1])c3nc-2c(C(=O)[*:2])c(N)c1=O; NMeV = CN[C@H](C(=O)O)C(C)C; Sar = CNCC(=O)O
Key:
[1] = target: T1, human DNA polymerase gamma (Homo sapiens, UniProt P54098); assay: Human cellular DNA polymerase gamma assay; format: biochemical
T1 sequence (P54098 1-1239): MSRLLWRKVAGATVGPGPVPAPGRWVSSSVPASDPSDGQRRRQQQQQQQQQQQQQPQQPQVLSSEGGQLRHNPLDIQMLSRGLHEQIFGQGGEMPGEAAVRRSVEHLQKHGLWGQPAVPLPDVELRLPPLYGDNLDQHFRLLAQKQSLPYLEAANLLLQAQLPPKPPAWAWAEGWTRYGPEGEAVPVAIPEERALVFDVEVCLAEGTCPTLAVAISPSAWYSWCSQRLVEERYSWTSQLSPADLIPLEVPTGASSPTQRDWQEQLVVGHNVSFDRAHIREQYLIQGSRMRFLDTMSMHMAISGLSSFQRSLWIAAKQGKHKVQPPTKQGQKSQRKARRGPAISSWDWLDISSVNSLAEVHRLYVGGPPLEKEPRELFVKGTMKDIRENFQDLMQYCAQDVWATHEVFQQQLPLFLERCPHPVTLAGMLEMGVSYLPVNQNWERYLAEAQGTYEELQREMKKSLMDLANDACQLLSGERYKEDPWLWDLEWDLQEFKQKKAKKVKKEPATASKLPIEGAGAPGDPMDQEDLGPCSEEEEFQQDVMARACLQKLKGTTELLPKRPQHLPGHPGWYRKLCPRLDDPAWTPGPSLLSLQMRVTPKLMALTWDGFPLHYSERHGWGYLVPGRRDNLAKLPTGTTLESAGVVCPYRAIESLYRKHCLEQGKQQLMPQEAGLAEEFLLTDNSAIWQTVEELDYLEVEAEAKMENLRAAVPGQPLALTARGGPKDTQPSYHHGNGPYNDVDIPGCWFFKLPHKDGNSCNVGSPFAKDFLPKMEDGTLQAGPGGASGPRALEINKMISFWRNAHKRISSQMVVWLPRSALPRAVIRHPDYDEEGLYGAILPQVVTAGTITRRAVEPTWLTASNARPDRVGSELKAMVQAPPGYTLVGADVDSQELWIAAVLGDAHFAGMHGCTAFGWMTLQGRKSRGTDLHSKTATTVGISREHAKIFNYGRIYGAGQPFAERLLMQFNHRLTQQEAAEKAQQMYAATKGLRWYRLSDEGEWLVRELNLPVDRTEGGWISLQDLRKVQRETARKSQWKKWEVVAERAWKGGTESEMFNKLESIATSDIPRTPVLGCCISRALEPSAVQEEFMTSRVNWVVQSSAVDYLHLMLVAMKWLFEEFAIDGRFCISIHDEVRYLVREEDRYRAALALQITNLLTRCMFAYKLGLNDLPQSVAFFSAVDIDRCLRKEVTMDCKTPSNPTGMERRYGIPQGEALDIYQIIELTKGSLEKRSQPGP
Excerpt: (§1) HIV RT, like other viral polymerase, shares limited structural homology with the cellular DNA polymerases responsible for normal nuclear and mitochondrial DNA synthesis and repair. This raises the formal possibility that inhibitors of HIV RT might inhibit cellular polymerases, resulting in cellular toxicity. In particular, inhibition of polymerase gamma has the potential to result in mitochondrial toxicity. The ability of Compound I and Compound III to inhibit cellular DNA polymerases was assessed using standard in vitro assays (Table 5).

[2] = tested on: HIV-1 BH10 wild-type virus; assay: microbe, parasite or virus in culture; format: cell-based; conditions: Human immunodeficiency virus 1, MT4, read-out: EC50, BH10, Example 16 comparative tables; unit inferred; several lines per compound
[3] = tested on: HIV-1 BH10 K103N mutant virus; assay: microbe, parasite or virus in culture; format: cell-based; conditions: Human immunodeficiency virus 1, MT4, read-out: EC50, K103N, Example 16 comparative tables; unit inferred
[4] = tested on: HIV-1 BH10 wild-type virus; assay: CPE / cell protection assay, MT-4 cells, BH10 wild-type; format: cell-based; conditions: Human immunodeficiency virus 1, MT4; Cell Protection Assay tables; unit inferred; read-out: EC50, BH10
Method: (§2) The activity of the compounds was also assessed with the same virus and cell type using a different assay readout based on cytopathic effect (CPE).
(§3) MT-4 cells (Source: NIH Catalog #120) were seeded onto 96-well cell culture plates (1×10^4 cells per well in 50 μL).
(§4) The final DMSO concentration in the assay was 0.5% in 120 μL. Cell cultures were then incubated at 37° C./5% CO2 for 4 days. Then, Cell Titer 96 AQueous One Solution Cell Proliferation Assay (Promega) was used to measure cell viability. Briefly, the One Solution Reagent was added directly to culture wells (20 μL/well), incubated for 5 hours, and the absorbance was recorded at 492 nm using the Sunrise Tecan Spectrophotometer.
(§5) The EC50 values were determined from the percent inhibition versus concentration data using a sigmoidal non-linear regression analysis based on four parameters with Tecan Magellan software.

CYP3A4 = CYP3A4 (Homo sapiens, UniProt P08684); assay: Recombinant CYP450 inhibition, fluorometric, CYP3A4; format: in vitro ADME; parameters: from tissue; host or cells: pooled human liver microsomes
Method: (§6) Compounds were assayed using recombinant human microsomal proteins with fluorometric substrates. Signal was measured with a Fusion plate reader utilizing the appropriate excitation and emission wavelength set to detect the specific metabolite: […]

[5] = tested on: HIV-1 BH10 K103N mutant virus; assay: microbe, parasite or virus in culture; format: cell-based; conditions: Human immunodeficiency virus 1, MT4, read-out: EC50, K103N
Method: as §2, §3, §4, §5

[6] = target: human DNA polymerase beta (Homo sapiens, UniProt P06746); assay: Human cellular DNA polymerase beta assay; format: biochemical
Excerpt: as §1

[7] = target: T2, human DNA polymerase alpha (Homo sapiens, UniProt P09884); assay: Human cellular DNA polymerase alpha assay; format: biochemical
T2 sequence (P09884 1-1462): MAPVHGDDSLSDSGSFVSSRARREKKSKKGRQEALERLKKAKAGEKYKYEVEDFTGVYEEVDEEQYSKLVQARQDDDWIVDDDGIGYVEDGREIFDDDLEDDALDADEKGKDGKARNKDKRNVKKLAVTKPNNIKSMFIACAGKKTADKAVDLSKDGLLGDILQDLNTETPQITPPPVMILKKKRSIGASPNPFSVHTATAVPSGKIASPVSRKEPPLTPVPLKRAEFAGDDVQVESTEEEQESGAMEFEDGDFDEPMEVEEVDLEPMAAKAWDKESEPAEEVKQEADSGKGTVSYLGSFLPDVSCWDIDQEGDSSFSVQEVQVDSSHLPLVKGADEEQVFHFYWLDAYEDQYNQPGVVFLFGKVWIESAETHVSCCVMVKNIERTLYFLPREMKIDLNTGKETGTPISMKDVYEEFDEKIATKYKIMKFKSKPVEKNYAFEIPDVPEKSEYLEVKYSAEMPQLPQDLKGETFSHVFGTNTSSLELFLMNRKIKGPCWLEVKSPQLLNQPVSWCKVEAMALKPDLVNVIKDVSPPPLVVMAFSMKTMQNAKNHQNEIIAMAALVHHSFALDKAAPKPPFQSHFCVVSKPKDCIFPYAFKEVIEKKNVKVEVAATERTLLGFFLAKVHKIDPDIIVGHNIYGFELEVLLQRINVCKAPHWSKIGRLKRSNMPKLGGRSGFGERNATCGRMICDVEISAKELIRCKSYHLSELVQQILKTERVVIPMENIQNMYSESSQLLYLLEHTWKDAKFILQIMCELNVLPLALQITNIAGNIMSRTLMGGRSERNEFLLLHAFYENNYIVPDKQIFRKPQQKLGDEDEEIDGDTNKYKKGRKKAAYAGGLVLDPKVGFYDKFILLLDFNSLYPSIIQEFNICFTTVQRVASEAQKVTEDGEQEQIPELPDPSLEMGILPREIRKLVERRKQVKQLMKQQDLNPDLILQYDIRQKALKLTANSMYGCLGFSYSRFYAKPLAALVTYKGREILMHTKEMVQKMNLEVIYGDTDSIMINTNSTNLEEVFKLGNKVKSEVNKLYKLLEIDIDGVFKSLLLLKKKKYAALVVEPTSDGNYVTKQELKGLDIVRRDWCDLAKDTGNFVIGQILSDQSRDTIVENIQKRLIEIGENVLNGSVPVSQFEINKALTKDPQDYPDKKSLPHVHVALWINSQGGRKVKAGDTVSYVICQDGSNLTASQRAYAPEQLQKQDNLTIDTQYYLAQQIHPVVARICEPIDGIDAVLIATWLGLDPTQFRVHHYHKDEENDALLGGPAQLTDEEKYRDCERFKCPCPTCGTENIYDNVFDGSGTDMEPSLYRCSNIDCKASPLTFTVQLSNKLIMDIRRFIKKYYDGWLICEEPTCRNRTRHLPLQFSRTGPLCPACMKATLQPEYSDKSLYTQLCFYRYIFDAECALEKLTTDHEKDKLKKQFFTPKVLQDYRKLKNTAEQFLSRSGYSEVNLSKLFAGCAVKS
Excerpt: as §1

CYP2C9 = CYP2C9 (Homo sapiens, UniProt P11712); assay: Recombinant CYP450 inhibition, Luciferin-H, CYP2C9; format: in vitro ADME; parameters: from tissue; host or cells: pooled human liver microsomes; conditions: highest concentration tested 10 μM
Method: CYP2C9 inhibition was performed by incubating a luminogenic CYP450 substrate Luciferin-H with CYP2C9 and an NADPH regeneration system. Luminescence measured using a Fusion plate reader.

CYP2D6 = CYP2D6 (Homo sapiens, UniProt P10635); assay: Recombinant CYP450 inhibition, fluorometric, CYP2D6; format: in vitro ADME; parameters: from tissue; host or cells: pooled human liver microsomes; conditions: recombinant human CYP2D6 microsomal protein, read-out: percentage of inhibition at the highest concentration tested, CYP2D6
Method: as §6

[8] = tested on: CYP3A4 (activation of PXR in DPX2 cells); assay: CYP3A4 induction screen in DPX2 cells; format: cell-based, human; conditions: extent compared with rifampicine, mifepristone, androstanol
Excerpt: The potential for in vitro induction of CYP3A4 was screened in DPX2 cells. The DPX2 cell line is a derivative of a human hepatocellular carcinoma cell line (HepG2) transformed with the human pregnane x receptor (PXR) and a reporter gene vector containing the enhancer region of CYP3A4. The potential for in vitro induction of CYP1A2 was screened in CYP1A2-DRE cells. The CYP1A2-DRE cell line is a stably transformed HepG2 cells with dioxin response elements (DRE) and reporter gene containing CYP1A2 promoter elements. The extent of CYP3A4 induction was determined by comparing the activation of PXR obtained with test article to that obtained with rifampicine (potent inducer), mifepristone (moderate inducer) and androstanol (weak inducer). The extent of CYP1A2 induction was determined by comparing the activation of the aryl hydrocarbon receptor (AhR) obtained with test article to that obtained with TCDD (potent inducer), omeprazole (moderate inducer), and 2-acetylaminofluorene (weak inducer).

HIV-2 ROD = HIV-2 ROD WT in H9 cell assay; format: cell-based; conditions: Human immunodeficiency virus 2, H9; Table 18; highest concentration assayed 1.25 μM; read-out: EC50 Values
Method: The susceptibility of HIV type 2 ROD in H9 cells to Compound I and Compound III was determined against zidovudine (AZT) as a control.

[9] = Table 6, N=4, read-out: Mean IC50 Values ± Standard Deviation, DNA Pol Gamma

Sequence of CYP3A4 (P08684 whole entry, the tested form may be a part): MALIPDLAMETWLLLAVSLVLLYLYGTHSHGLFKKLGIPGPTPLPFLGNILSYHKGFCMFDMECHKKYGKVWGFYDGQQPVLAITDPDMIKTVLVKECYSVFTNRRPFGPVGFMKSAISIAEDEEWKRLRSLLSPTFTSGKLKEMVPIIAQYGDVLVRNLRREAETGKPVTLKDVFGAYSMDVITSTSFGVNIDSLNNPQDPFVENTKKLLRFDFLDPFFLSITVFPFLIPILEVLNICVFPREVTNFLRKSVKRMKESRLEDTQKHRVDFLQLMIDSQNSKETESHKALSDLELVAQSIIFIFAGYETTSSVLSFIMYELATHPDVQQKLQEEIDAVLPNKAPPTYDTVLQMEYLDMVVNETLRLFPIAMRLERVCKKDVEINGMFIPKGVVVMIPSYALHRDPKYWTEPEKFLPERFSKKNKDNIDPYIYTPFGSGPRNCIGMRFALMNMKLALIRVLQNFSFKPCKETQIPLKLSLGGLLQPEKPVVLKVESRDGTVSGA
Sequence of CYP2C9 (P11712 whole entry, the tested form may be a part): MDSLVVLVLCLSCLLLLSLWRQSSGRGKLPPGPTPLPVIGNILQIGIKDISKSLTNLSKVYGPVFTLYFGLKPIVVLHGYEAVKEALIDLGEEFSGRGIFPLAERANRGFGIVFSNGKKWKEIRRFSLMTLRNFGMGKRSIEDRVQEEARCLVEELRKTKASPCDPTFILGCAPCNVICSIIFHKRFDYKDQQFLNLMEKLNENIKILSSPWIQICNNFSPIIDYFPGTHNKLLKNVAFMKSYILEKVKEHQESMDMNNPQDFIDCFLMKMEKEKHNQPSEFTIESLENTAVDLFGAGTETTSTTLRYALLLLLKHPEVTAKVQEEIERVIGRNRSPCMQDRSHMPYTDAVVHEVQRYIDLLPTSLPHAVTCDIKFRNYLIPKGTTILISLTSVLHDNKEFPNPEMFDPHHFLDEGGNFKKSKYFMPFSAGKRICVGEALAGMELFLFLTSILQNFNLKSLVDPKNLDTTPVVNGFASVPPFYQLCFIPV
Sequence of CYP2D6 (P10635 whole entry): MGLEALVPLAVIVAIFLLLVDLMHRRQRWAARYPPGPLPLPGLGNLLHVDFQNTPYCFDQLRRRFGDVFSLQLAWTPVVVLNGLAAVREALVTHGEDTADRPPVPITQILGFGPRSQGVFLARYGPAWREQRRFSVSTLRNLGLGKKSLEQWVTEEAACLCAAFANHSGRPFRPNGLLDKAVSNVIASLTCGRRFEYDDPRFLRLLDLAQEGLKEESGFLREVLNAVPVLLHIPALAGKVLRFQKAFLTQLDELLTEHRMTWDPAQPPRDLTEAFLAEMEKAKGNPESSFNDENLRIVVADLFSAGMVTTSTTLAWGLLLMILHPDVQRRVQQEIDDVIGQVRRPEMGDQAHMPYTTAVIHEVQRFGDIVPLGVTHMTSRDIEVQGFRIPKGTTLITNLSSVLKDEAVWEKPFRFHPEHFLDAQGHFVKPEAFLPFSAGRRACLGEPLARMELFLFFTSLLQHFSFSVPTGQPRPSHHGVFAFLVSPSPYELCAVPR

dideoxycytidine triphosphate [ddCTP, reference compound]
IC50 [1, 9]: 1.5 ± 0.6 µM

CO[P@@](=O)(c1cc(C)cc(/C=C/C#N)c1)c1c(C(N)=O)[nH]c2ccc(Cl)c(F)c12 [Compound II, (2-Carbamoyl-5-chloro-4-fluoro-1H-indol-3-yl)-[3-((E)-2-cyano-vinyl)-5-methyl-phenyl]-(S)-phosphinic acid methyl ester]
EC50 [2]: 192 nM | EC50 [3]: 920 nM | EC50 [4]: 62 ± 19 nM | IC50 (CYP3A4): 3.21 µM | EC50 [5]: 0.277 ± 0.099 µM

Cc1c2oc3c(C)ccc(C(=O)N[C@@H]4C(=O)N[C@H](C(C)C)C(=O)N5CCC[C@H]5C(=O)N(C)CC(=O)N(C)[C@@H](C(C)C)C(=O)O[C@@H]4C)c3nc-2c(C(=O)N[C@@H]2C(=O)N[C@H](C(C)C)C(=O)N3CCC[C@H]3C(=O)N(C)CC(=O)N(C)[C@@H](C(C)C)C(=O)O[C@@H]2C)c(N)c1=O [Act. D, actinomycin D, reference compound] (I: T[dV]P[Sar][NMeV] / II: T[dV]P[Sar][NMeV]; ester I:1-I:C, II:1-II:C; linker I:N-II:N via Actinocin(9to1))
IC50 ([6]; Table 5, read-out: Average IC50 Values ± Standard Deviation, DNA Pol Beta): 23 ± 10.4 µM | IC50 ([6]; Table 6, N=4, read-out: Mean IC50 Values ± Standard Deviation, DNA Pol Beta): 23 ± 10.4 µM | IC50 ([7]; Table 5, read-out: Average IC50 Values ± Standard Deviation, DNA Pol Alpha): 16.1 ± 11.2 µM | IC50 ([7]; Table 6, N=4, read-out: Mean IC50 Values ± Standard Deviation, DNA Pol Alpha): 16.1 ± 11.2 µM | IC50 ([1]; Table 5, preliminary data from a single experiment, read-out: Average IC50 Values, DNA Pol Gamma): 16.9 µM | IC50 [1, 9]: 11.8 ± 1.9 µM

CO[P@@](=O)(c1cc(C)cc(/C=C/C#N)c1)c1c(C(N)=O)[nH]c2ccc(Cl)cc12 [IV, (2-carbamoyl-5-chloro-1H-indol-3-yl)-[3-((E)-2-cyano-vinyl)-5-methyl-phenyl]-(S)-phosphinic acid methyl ester]
IC50 (CYP2C9): 3.38 µM | inhibition at 10 µM (CYP2D6): 29.1% | Induction, DPX2 (CYP3A4) [8]: Moderate (n = 1) | EC50 [4]: 0.2 ± 0.1 nM | IC50 (CYP3A4; recombinant, highest concentration tested 10 μM, read-out: IC50, CYP3A4): 2.96 µM | EC50 [5]: 0.0003 µM

Cc1cn([C@H]2C[C@H](N=[N+]=[N-])[C@@H](CO)O2)c(=O)[nH]c1=O [AZT, zidovudine, reference compound]
EC50 (HIV-2 ROD): 0.162 ± 0.0767 µM
